Experimental data as given in ChEMBL document CHEMBL1130625, “Synthesis and antibacterial activity of novel 7-(3-substituted-3 or 4-trifluoromethyl-1-pyrrolidinyl)-8-methoxyfluoroquinolones” (1998).

Columns and labels:
Pseudomonas aeruginosa [1] = experiment: Compound was tested for antibacterial activity against gram negative Pseudomonas aeruginosa AK109; assay type: functional; conditions: Pseudomonas aeruginosa; read-out: MIC
Streptococcus pyogenes = experiment: Compound was tested for antibacterial activity against gram positive Streptococcus pyogenes cook; conditions: Streptococcus pyogenes; read-out: MIC
Escherichia coli [2] = experiment: Compound was tested for antibacterial activity against gram negative Escherichia coli NIHJ JC-2; assay type: functional; conditions: Escherichia coli; read-out: MIC
Citrobacter freundii [3] = experiment: Compound was tested for antibacterial activity against gram negative Citrobacter freundii No.7; assay type: functional; conditions: Citrobacter freundii; read-out: MIC
Proteus vulgaris [4] = experiment: Compound was tested for antibacterial activity against gram negative Proteus vulgaris No.33; assay type: functional; conditions: Proteus vulgaris; read-out: MIC
Pseudomonas aeruginosa [5] = experiment: Compound was tested for antibacterial activity against gram negative Pseudomonas aeruginosa K-13; assay type: functional; conditions: Pseudomonas aeruginosa; read-out: MIC
Staphylococcus aureus [6] = experiment: Compound was tested for antibacterial activity against gram positive Staphylococcus aureus KP-90-3; assay type: functional; conditions: Staphylococcus aureus; read-out: MIC
Escherichia coli [7] = experiment: Compound was tested for antibacterial activity against gram negative Escherichia coli CSH2/RK1; assay type: functional; conditions: Escherichia coli; read-out: MIC
Serratia marcescens = experiment: Compound was tested for antibacterial activity against gram negative Serratia marcescens No.16-2; assay type: functional; conditions: Serratia marcescens; read-out: MIC
Burkholderia cepacia = experiment: Compound was tested for antibacterial activity against gram negative Burkholderia cepacia 23; assay type: functional; conditions: Burkholderia cepacia; read-out: MIC
Proteus vulgaris [8] = experiment: Compound was tested for antibacterial activity against gram negative Proteus vulgaris KS-134; assay type: functional; conditions: Proteus vulgaris; read-out: MIC
[9] = test system: Acinetobacter calcoaceticus; experiment: Compound was tested for antibacterial activity against gram negative Acinetobacter calcoaceticus No.4; assay type: functional; conditions: Acinetobacter calcoaceticus; read-out: MIC
Klebsiella oxytoca = experiment: Compound was tested for antibacterial activity against gram negative Klebsiella oxytoca GN 10650; assay type: functional; conditions: Klebsiella oxytoca; read-out: MIC
Pseudomonas aeruginosa [10] = experiment: Compound was tested for antibacterial activity against gram negative Pseudomonas aeruginosa KP-254; assay type: functional; conditions: Pseudomonas aeruginosa; read-out: MIC
Proteus mirabilis = experiment: Compound was tested for antibacterial activity against gram negative Proteus mirabilis JY-10; assay type: functional; conditions: Proteus mirabilis; read-out: MIC
Staphylococcus aureus [11] = experiment: Compound was tested for antibacterial activity against gram positive Staphylococcus aureus JS-1; assay type: functional; conditions: Staphylococcus aureus; read-out: MIC
Pseudomonas aeruginosa [12] = experiment: Compound was tested for antibacterial activity against gram negative Pseudomonas aeruginosa PAO1; assay type: functional; conditions: Pseudomonas aeruginosa; read-out: MIC
Escherichia coli [13] = experiment: Compound was tested for antibacterial activity against gram negative Escherichia coli CSH2/RE45; assay type: functional; conditions: Escherichia coli; read-out: MIC
Enterococcus faecalis = experiment: Compound was tested for antibacterial activity against gram positive Enterococcus faecalis 1373; assay type: functional; conditions: Enterococcus faecalis; read-out: MIC
Escherichia coli [14] = experiment: Compound was tested for antibacterial activity against gram negative Escherichia coli ML4707; assay type: functional; conditions: Escherichia coli; read-out: MIC
Klebsiella pneumoniae [15] = experiment: Compound was tested for antibacterial activity against gram negative Klebsiella pneumoniae KC-1; assay type: functional; conditions: Klebsiella pneumoniae; read-out: MIC
Klebsiella pneumoniae [16] = experiment: Compound was tested for antibacterial activity against gram negative Klebsiella pneumoniae No.42; assay type: functional; conditions: Klebsiella pneumoniae; read-out: MIC
Staphylococcus aureus [17] = experiment: Compound was tested for antibacterial activity against gram positive Staphylococcus aureus smith; assay type: functional
Staphylococcus aureus [18] = experiment: Compound was tested for antibacterial activity against gram positive Staphylococcus aureus FDA 209P JC-1; assay type: functional; conditions: Staphylococcus aureus; read-out: MIC
Enterobacter cloacae = experiment: Compound was tested for antibacterial activity against gram negative Enterobacter cloacae Nek39; assay type: functional; conditions: Enterobacter cloacae; read-out: MIC
Citrobacter freundii [19] = experiment: Compound was tested for antibacterial activity against gram negative Citrobacter freundii KP-29; assay type: functional; conditions: Citrobacter freundii; read-out: MIC

MIC (Pseudomonas aeruginosa [1]) [µg/mL]	MIC (Streptococcus pyogenes) [µg/mL]	MIC (Escherichia coli [2]) [µg/mL]	MIC (Citrobacter freundii [3]) [µg/mL]	MIC (Proteus vulgaris [4]) [µg/mL]	MIC (Pseudomonas aeruginosa [5]) [µg/mL]	MIC (Staphylococcus aureus [6]) [µg/mL]	MIC (Escherichia coli [7]) [µg/mL]	MIC (Serratia marcescens) [µg/mL]	MIC (Burkholderia cepacia) [µg/mL]	MIC (Proteus vulgaris [8]) [µg/mL]	MIC [9] [µg/mL]	MIC (Klebsiella oxytoca) [µg/mL]	MIC (Pseudomonas aeruginosa [10]) [µg/mL]	MIC (Proteus mirabilis) [µg/mL]	MIC (Staphylococcus aureus [11]) [µg/mL]	MIC (Pseudomonas aeruginosa [12]) [µg/mL]	MIC (Escherichia coli [13]) [µg/mL]	MIC (Enterococcus faecalis) [µg/mL]	MIC (Escherichia coli [14]) [µg/mL]	Compound	further results
0.78	≤ 0.006	0.05	0.78	0.05	3.13	0.2	0.2	0.78	1.56	25	0.1	0.05	50	0.025	≤ 0.006	0.78	0.2	0.05	0.025	COc1c(N2C[C@H](CN)[C@H](C(F)(F)F)C2)c(F)cc2c(=O)c(C(=O)O)cn(C3CC3)c12.Cl	MIC (Klebsiella pneumoniae [15]): 0.05 µg/mL; MIC (Klebsiella pneumoniae [16]): 0.1 µg/mL; MIC (Staphylococcus aureus [17]): ≤ 0.006 µg/mL; MIC (Staphylococcus aureus [18]): 0.025 µg/mL; MIC (Enterobacter cloacae): 0.39 µg/mL; MIC (Citrobacter freundii [19]): 6.25 µg/mL
6.25	0.1	0.39	3.13	0.39	25	1.56	3.13	3.13	1.56	100	0.2	0.39	> 100	0.2	0.025	6.25	3.13	0.2	≤ 0.006	COc1c(N2CC[C@@](N)(C(F)(F)F)C2)c(F)cc2c(=O)c(C(=O)O)cn(C3CC3)c12.Cl	MIC (Klebsiella pneumoniae [15]): 0.2 µg/mL; MIC (Klebsiella pneumoniae [16]): 0.39 µg/mL; MIC (Staphylococcus aureus [17]): ≤ 0.006 µg/mL; MIC (Staphylococcus aureus [18]): 0.05 µg/mL; MIC (Enterobacter cloacae): 1.56 µg/mL; MIC (Citrobacter freundii [19]): 100 µg/mL
> 12.5	0.78	3.13	> 12.5	3.13	> 12.5	6.25	> 12.5	> 12.5	3.13	> 12.5	1.56	6.25	> 12.5	0.78	0.1	> 12.5	> 12.5	0.78	0.05	COc1c(N2CC[C@@](CN)(C(F)(F)F)C2)c(F)cc2c(=O)c(C(=O)O)cn(C3CC3)c12.Cl	MIC (Klebsiella pneumoniae [15]): 1.56 µg/mL; MIC (Klebsiella pneumoniae [16]): 6.25 µg/mL; MIC (Staphylococcus aureus [17]): 0.05 µg/mL; MIC (Staphylococcus aureus [18]): 0.2 µg/mL; MIC (Enterobacter cloacae): 12.5 µg/mL; MIC (Citrobacter freundii [19]): > 12.5 µg/mL
0.78	≤ 0.006	0.05	0.39	0.1	6.25	0.2	0.39	0.39	1.56	50	0.2	0.1	100	0.05	≤ 0.006	0.78	0.39	0.05	0.025	COc1c(N2C[C@@H](CN)[C@H](C)C2)c(F)cc2c(=O)c(C(=O)O)cn(C3CC3)c12.Cl	MIC (Klebsiella pneumoniae [15]): 0.1 µg/mL; MIC (Klebsiella pneumoniae [16]): 0.1 µg/mL; MIC (Staphylococcus aureus [17]): ≤ 0.006 µg/mL; MIC (Staphylococcus aureus [18]): 0.013 µg/mL; MIC (Enterobacter cloacae): 0.39 µg/mL; MIC (Citrobacter freundii [19]): 12.5 µg/mL
6.25	0.39	0.39	3.13	0.39	25	3.13	3.13	3.13	1.56	100	0.2	0.39	> 100	0.2	0.05	3.13	3.13	0.39	0.05	COc1c(N2C[C@@H](N)[C@H](C(F)(F)F)C2)c(F)cc2c(=O)c(C(=O)O)cn(C3CC3)c12.O=C(O)C(F)(F)F	MIC (Klebsiella pneumoniae [15]): 0.39 µg/mL; MIC (Klebsiella pneumoniae [16]): 0.39 µg/mL; MIC (Staphylococcus aureus [17]): 0.05 µg/mL; MIC (Staphylococcus aureus [18]): 0.1 µg/mL; MIC (Enterobacter cloacae): 3.13 µg/mL; MIC (Citrobacter freundii [19]): 100 µg/mL
